Test results published in US9249139B2, “Indolizinone based derivatives as potential phosphodiesterase 3 (PDE3) inhibitors and a process for the preparation thereof” (COUNCIL OF SCIENTIFIC & INDUSTRIAL RESEARCH, priority 2013, dated 2016).

Each molecule was assayed against PDE3 enzyme (Homo sapiens (Human), UniProt Q14432) (assay: PDE3 inhibition assay, BIOMOL GREEN Quantizyme Assay System). Conditions: PDE3 enzyme from platelets isolated from human blood; cAMP substrate; 1 hour at 37° C.; read at 620 nm.
Sequence of PDE3 enzyme (Q14432 whole entry): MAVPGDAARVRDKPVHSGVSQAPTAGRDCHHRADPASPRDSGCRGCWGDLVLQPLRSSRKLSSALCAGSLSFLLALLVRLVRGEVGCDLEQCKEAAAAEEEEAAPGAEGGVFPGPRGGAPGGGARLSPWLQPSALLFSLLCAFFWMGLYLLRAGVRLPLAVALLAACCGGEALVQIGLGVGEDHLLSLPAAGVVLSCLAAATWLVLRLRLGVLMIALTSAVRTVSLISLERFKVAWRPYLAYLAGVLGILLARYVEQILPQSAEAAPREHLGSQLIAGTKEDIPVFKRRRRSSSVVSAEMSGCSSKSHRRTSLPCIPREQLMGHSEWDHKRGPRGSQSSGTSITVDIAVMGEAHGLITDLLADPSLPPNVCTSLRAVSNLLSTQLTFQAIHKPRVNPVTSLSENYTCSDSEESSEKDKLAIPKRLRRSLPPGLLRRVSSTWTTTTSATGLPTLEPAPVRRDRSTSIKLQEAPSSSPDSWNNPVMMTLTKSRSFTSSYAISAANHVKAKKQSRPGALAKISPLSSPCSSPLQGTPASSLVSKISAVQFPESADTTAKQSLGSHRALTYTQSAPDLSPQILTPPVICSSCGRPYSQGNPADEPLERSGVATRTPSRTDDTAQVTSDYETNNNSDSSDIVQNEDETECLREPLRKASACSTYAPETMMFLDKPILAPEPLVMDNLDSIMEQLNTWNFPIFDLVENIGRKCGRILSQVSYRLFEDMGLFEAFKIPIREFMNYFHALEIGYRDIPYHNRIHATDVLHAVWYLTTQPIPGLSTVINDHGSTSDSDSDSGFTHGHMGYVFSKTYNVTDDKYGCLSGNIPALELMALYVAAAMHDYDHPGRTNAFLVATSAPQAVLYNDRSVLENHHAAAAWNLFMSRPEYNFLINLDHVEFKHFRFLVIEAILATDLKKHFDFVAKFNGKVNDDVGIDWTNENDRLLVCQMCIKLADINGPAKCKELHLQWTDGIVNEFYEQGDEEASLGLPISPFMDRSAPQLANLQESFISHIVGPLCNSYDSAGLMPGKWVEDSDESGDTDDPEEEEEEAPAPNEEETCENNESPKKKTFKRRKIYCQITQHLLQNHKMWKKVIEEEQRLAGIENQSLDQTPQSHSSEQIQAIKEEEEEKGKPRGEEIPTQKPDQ
Assay type: biochemical
Protocol: PDE3 inhibition assay was performed a BIOMOL GREEN™ Quantizyme Assay System (catalogue No. BML-AK800-0001). The Platelets isolated from human blood were used as a source of PDE3 enzyme. 10 mL blood collected in a vacutainer tube (containing K3 EDTA) and centrifuged at 190×g for 15 min at room temperature. Top layer (platelet rich plasma) collected, centrifuged at 2500g for 5 min at 22° C. (Room temp.) The pellet was washed with 2 ml of 50 mM tris buffer (pH-7.4) containing 1 mM MgCl2 and centrifuged at 2500 g for 5 min. Then 200 μl of assay buffer (from PDE kit, Enzo Life Sciences) was added to the pellet and sonicated at 30 s per ml. Pellet was freeze thawed for three times (−80° C.) in order to rupture the platelet membrane and release the PDE enzyme. Then the cell homogenate was centrifuged at 2500 rpm for 5 min. Supernatant was collected and used as source for PDE3 enzyme. In 96 well plate (Prod. No. BML-KI101), we added supernatant having PDE3 enzyme, PDE3 assay buffer, cAMP substrate, 5′nucleotidase and test or standard compound and incubated for 1 hour at 37° C. The reaction was arrested by the addition 100 μl BIOMOL GREEN reagent incubated in room temp for 20 min. The green color developed was measured at 620 nm
The in vitro Phosphodiestarase (PDE3) inhibitory activity of compounds 1a-p were measured using a BIOMOL GREEN™ Quantizyme Assay System (catalogue No. BML-AK800-0001). The basic principle for this assay is the cleavage of c-AMP or c-GMP into their respective nucleotide by a cyclic nucleotide phosphodiesterase. The nucleotide (AMP or GMP) released is further cleaved into the nucleoside and phosphate by the enzyme 5′-nucleotidase. The extent of phosphate released is directly proportional to the PDE activity. In this screening method, the released phosphate by the enzymatic cleavage is quantified using BIOMOL GREEN reagent in a modified malachite green assay. The resulting green colour with λmax at 620 nm is directly proportional to the released phosphate and then PDE activity.

Row | SMILES | IC50 [nM]
1 | CCOC(=O)c1cc(Cc2ccc(F)cc2)c(=O)n2c1CCC2 [Compound 1d, Ethyl 6-(4-fluorobenzyl)-5-oxo-1,2,3,5-tetrahydro-8-indolizinonecarboxylate] | 1600
2 | CCOC(=O)c1cc(Cc2ccccc2Cl)c(=O)n2c1CCC2 [Compound 1e, Ethyl 6-(2-chlorobenzyl)-5-oxo-1,2,3,5-tetrahydro-8-indolizinonecarboxylate] | 129
3 | CCOC(=O)c1cc(Cc2cccc(F)c2)c(=O)n2c1CCC2 [Compound 1c, Ethyl 6-(3-fluorobenzyl)-5-oxo-1,2,3,5-tetrahydro-8-indolizinonecarboxylate] | 13.5
4 | CCOC(=O)c1cc(Cc2ccccc2)c(=O)n2c1CCC2 [Compound 1a, Ethyl 6-benzyl-5-oxo-1,2,3,5-tetrahydro-8-indolizinonecarboxylate] | 435

Further lines, results first:

Row | IC50 [nM] | SMILES
5 | 67.3 | CCOC(=O)c1cc(Cc2ccc(Br)cc2)c(=O)n2c1CCC2 [Compound 1k, Ethyl 6-(4-bromobenzyl)-5-oxo-1,2,3,5-tetrahydro-8-indolizinonecarboxylate]
6 | 11.3 | CCOC(=O)c1cc(Cc2cccc(Br)c2)c(=O)n2c1CCC2 [Compound 1j, Ethyl 6-(3-bromobenzyl)-5-oxo-1,2,3,5-tetrahydro-8-indolizinonecarboxylate]
7 | 108 | CCOC(=O)c1cc(Cc2ccc(Cl)cc2)c(=O)n2c1CCC2 [Compound 1g, Ethyl 6-(4-chlorobenzyl)-5-oxo-1,2,3,5-tetrahydro-8-indolizinonecarboxylate]
8 | 577 | CCOC(=O)c1cc(Cc2ccc(Cl)cc2Cl)c(=O)n2c1CCC2 [Compound 1h, Ethyl 6-(2,4-dichlorobenzyl)-5-oxo-1,2,3,5-tetrahydro-8-indolizinonecarboxylate]
